This is an account of results in ChEMBL document CHEMBL4699449, “Adenosine A Receptor Antagonists for Cancer Immunotherapy” (J Med Chem, 2020).

The nature of data set [1]: Half life in mouse at 2 mg/kg, iv or 10 mg/kg, po measured up to 24 hrs by LC-MS/MS analysis. The following applies: in vivo. Format: ADME, organism-based.
The nature of data set [2]: Cmax in mouse at 1 mg/kg, iv measured up to 24 hrs by LC-MS/MS analysis. Type of data set: ADME, organism-based. On the set-up: route intravenous, dose 1 mg/kg, time <=24. Particulars: in vivo.
Data set [3] has as its target T1, Adenosine receptor A2a (Homo sapiens, UniProt P29274). Put plainly: Antagonist activity at human adenosine 2A receptor expressed in HEK293 cells assessed as reduction in cAMP production preincubated for 10 mins followed by adenosine addition and measured after 30 mins by EU-cAMP tracer based TR-FRET assay. Format: functional, cell-based. (Cyclic AMP is a second messenger, typically raised through Gs and lowered through Gi signalling.)

Data set [4] deals with T1, Adenosine receptor A2a. Put plainly: Antagonist activity at adenosine 2A receptor in human peripheral blood lymphocytes assessed as reduction in NECA-stimulated CREB phosphorylation by flow cytometric analysis. Type of data set: functional, cell-based, PBL. In general terms: In flow cytometry, cells or beads pass a laser one at a time.
Data set [5] has as its target T1, Adenosine receptor A2a. Put plainly: Antagonist activity at human adenosine 2A receptor expressed in HEK293 cells assessed as reduction in cAMP production preincubated for 10 mins followed by 5 nM A2A agonist NECA addition and measured after 30 mins by EU-cAMP tracer based TR-FRET assay. Format: functional, cell-based.
Data set [6] has as its target T1, Adenosine receptor A2a. Put plainly: Antagonist activity at human adenosine 2A receptor expressed in HEK293 cells assessed as reduction in cAMP production preincubated for 10 mins followed by 3 nM A2A agonist NECA addition and measured after 30 mins by EU-cAMP tracer based TR-FRET assay. Type of data set: functional, cell-based.
The target in data set [7] is T2, Adenosine receptor A1 (Homo sapiens, UniProt P30542).
T2 sequence (P30542 whole entry): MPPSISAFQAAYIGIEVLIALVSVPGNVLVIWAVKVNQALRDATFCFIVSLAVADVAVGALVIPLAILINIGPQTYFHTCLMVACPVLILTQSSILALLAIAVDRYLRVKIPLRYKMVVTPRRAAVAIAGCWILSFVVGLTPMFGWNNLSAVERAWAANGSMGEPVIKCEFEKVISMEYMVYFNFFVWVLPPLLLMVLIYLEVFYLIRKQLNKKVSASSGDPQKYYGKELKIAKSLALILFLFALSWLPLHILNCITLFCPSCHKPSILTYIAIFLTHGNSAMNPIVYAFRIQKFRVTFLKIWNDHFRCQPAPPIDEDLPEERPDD
Put plainly: Antagonist activity at human adenosine A1 receptor expressed in CHO cells by radioligand competition binding assay. Format: cell-based.

The target in data set [8] is T3, Adenosine receptor A3 (Homo sapiens, UniProt P0DMS8).
T3 sequence (P0DMS8 whole entry): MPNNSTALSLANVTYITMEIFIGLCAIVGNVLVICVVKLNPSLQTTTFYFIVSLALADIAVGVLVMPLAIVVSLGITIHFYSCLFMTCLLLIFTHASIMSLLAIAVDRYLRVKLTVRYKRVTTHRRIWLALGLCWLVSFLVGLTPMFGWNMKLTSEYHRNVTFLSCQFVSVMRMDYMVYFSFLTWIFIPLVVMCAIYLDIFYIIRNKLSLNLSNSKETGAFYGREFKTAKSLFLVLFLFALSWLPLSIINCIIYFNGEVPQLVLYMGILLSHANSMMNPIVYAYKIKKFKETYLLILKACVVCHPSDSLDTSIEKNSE
The data set can be described thus: Antagonist activity at human adenosine A3 receptor expressed in HeLa cells by radioligand competition binding assay. Type of data set: cell-based. In general terms: Loss of bound radioactivity is the signal in a displacement assay; it reports binding, not function.

Data set [9] concerns the target T4, Adenosine receptor A2b (Homo sapiens, UniProt P29275).
T4 sequence (P29275 whole entry): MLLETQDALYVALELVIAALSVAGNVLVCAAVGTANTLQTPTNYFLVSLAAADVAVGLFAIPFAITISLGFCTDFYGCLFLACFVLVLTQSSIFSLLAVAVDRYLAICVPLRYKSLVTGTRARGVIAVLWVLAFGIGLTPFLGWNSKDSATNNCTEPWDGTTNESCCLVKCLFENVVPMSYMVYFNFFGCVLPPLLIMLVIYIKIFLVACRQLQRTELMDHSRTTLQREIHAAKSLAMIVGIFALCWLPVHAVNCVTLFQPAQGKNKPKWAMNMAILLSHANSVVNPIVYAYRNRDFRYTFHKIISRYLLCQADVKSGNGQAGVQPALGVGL
The data set can be described thus: Antagonist activity at human adenosine A2b receptor expressed in HEK293 cells by radioligand competition binding assay. Type of data set: cell-based.

Data set [10] deals with Adenosine receptor A2a (Rattus norvegicus) (UniProt P30543). The data set can be described thus: Antagonist activity at adenosine 2A receptor in rat PC12 cells assessed as reduction in NECA-induced cAMP level incubated for 30 mins by TR-FRET assay. Type of data set: functional, cell-based. The following applies: PC-12, filed as antagonist.
Adenosine receptor A2a (Rattus norvegicus), sequence (P30543 whole entry): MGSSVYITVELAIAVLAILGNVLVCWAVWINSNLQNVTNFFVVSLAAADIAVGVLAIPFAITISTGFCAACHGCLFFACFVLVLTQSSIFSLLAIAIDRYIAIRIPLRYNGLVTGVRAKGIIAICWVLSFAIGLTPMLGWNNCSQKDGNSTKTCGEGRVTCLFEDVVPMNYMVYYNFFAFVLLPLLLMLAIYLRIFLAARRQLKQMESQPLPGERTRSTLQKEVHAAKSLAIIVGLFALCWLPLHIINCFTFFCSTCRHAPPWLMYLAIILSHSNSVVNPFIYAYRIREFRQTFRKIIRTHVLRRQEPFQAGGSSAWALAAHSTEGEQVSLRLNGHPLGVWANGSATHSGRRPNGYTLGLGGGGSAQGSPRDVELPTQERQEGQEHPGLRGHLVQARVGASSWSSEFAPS
Data set [11] deals with T3, Adenosine receptor A3. The data set can be described thus: Inhibition of FRET-labelled CA200645 binding to human adenosine A3 receptor expressed in CHO cells incubated for 2 hr by TR-FRET assay. Format: cell-based.
The target in data set [12] is T1, Adenosine receptor A2a. Put plainly: Antagonist activity at adenosine 2A receptor in human blood assessed as reversal of NECA/LPS-stimulated TNF-alpha release incubated for 5 hrs. Format: tissue-based.
Data set [13] has as its target T2, Adenosine receptor A1. Put plainly: Inhibition of FRET-labelled CA200645 binding to human adenosine A1 receptor expressed in CHO cells incubated for 2 hr by TR-FRET assay. Type of data set: cell-based.
For data set [14], the target named is T1, Adenosine receptor A2a. The data set can be described thus: Inhibition of FRET-labelled CA200645 binding to human adenosine 2A receptor expressed in CHO cells incubated for 2 hr by TR-FRET assay. Format: cell-based.
A short description of data set [15]: Tmax in human at 75 to 200 mg administered as multiple ascending dose. Type of data set: ADME. Particulars: in vivo, dose 75-200 mg.
Data set [16] is described as follows: Cmax in human at 75 to 200 mg. On the set-up: dose 75-200. Format: ADME.
The nature of data set [17]: Tmax in human at 75 to 200 mg administered as single ascending dose. Format: ADME. Particulars: in vivo, dose 75-200 mg.
The nature of data set [18]: Half life in human at 75 to 200 mg. Type of data set: ADME. The following applies: dose 75-200 mg.
For data set [19], the target named is T1, Adenosine receptor A2a. The data set can be described thus: Antagonist activity at human adenosine 2A receptor expressed in T-REx-CHO cells preincubated for 1 hr followed by NECA stimulation and measured after 30 mins by Eu-cAMP tracer based TR-FRET assay. Type of data set: functional, cell-based. Particulars: filed as antagonist, time 1.5 hrs.
Data set [20] deals with T5, Adenosine receptor A2b (Homo sapiens) (UniProt P29275).
T5 sequence (whole entry): T4 sequence (P29275 whole entry)
Put plainly: Antagonist activity at human adenosine 2B receptor expressed in CHO-K1 cells preincubated for 1 hr followed by NECA stimulation and measured after 30 mins by Eu-cAMP tracer based TR-FRET assay. Format: functional, cell-based. Particulars: filed as antagonist, time 1.5 hrs.

For data set [21], the target named is T1, Adenosine receptor A2a. Put plainly: Antagonist activity at human adenosine 2A receptor expressed in HEK293 cells assessed as reduction in NECA-induced cAMP level incubated for 15 mins by HTRF assay. Type of data set: functional, cell-based.
Data set [22] concerns the target T6, Adenosine receptor A2a (Mus musculus, UniProt Q60613). The data set can be described thus: Antagonist activity at adenosine 2A receptor in BALB/c mouse T cells assessed as reduction in CGS-21680-induced suppression of IL-2 secretion incubated for 24 hrs by ELISA. Type of data set: cell-based, T cell.
In data set [23] the target is T6, Adenosine receptor A2a. Put plainly: Antagonist activity at adenosine 2A receptor in BALB/c mouse T cells assessed as reduction in CGS-21680-induced suppression of IFN-gamma secretion incubated for 24 hrs by ELISA. Format: cell-based, T cell.

T1 sequence (P29274 whole entry): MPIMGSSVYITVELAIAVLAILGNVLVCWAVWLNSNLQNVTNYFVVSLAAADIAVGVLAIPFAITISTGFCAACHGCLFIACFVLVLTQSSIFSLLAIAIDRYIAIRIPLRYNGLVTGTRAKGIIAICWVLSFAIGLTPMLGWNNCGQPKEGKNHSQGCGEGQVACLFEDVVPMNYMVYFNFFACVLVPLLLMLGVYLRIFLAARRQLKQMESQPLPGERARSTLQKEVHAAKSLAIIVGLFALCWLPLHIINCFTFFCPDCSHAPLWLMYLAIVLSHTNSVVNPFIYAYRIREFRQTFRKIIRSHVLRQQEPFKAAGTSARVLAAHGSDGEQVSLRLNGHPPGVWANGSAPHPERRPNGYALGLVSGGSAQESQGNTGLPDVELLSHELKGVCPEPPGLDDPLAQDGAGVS
T6 sequence (Q60613 whole entry): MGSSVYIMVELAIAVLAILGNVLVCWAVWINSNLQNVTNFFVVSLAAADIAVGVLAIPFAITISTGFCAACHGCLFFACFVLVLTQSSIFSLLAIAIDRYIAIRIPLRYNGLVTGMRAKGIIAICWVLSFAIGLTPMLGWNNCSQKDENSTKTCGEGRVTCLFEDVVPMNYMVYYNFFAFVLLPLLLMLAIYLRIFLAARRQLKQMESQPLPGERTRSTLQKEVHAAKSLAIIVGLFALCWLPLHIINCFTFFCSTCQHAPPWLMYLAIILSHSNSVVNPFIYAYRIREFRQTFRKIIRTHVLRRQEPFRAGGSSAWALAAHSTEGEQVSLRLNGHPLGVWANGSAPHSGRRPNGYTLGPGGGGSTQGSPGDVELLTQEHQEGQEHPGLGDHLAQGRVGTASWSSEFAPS

Usually half-life stands for the time in which the quantity being followed falls by half. High values mean slow decline, low ones rapid decline. What is called Cmax is the maximum level reached in the sampled fluid or tissue. Take `COc1ccc(-c2cnn(C)c2)c2nc(NC(=O)N3CCC(C)(O)CC3)[nH]c12`: the half-life in data set [1] was 52 min. The Cmax in data set [2] amounted to 1320 ng/mL.

One may read the IC50 as the concentration at which inhibition is half-maximal. With `NC(=O)Cc1cc(N2CCN(CCn3c(=O)sc4c3nc(N)n3nc(-c5ccco5)nc43)CC2)c(F)cc1F`, the half-maximal inhibitory concentration (IC50) is 49 nM in data set [3], 20 nM in data set [4], 2 nM in data set [5] and 0.5 nM in data set [6].

As a reminder, the Ki is the equilibrium dissociation constant of an inhibitor or competing ligand from its target. Low readings indicate higher affinity, high ones lower affinity. For `Nc1nc(-n2cccn2)nc(-n2cccn2)c1Br` [PBF-509], the Ki is 2500 nM in data set [7], 5000 nM in data set [8] and 1000 nM in data set [9].

One may read the Kb as the equilibrium dissociation constant of an antagonist, usually derived from a functional assay. For the compound `Nc1nc(-c2ccccc2)c(-c2ccc(O)c(Cl)c2)n2ccnc12`, the Kb in data set [10] is under 10000 nM.

Turning to `COCCn1cc(C(=O)Nc2cnc3c(C4CCOCC4)ccc(OC)c3n2)cn1`, the half-life in [1] is 20.3 min. For the same compound, the Cmax in data set [2] came out at 1220 ng/mL.

Regarding `Cc1cccnc1CNC(=O)c1c(N)nc(-c2ccco2)nc1OCCF`, the values for the inhibition constant Ki in data set [11], in data set [13] and in [14] were 62 nM, 260 nM and 1.3 nM, respectively. The 50% inhibitory concentration (IC50) in data set [12] was over 200 nM.

Broadly, the Tmax is the time from dosing to the highest level. In the case of `Cc1c(C#N)cccc1-c1cc(-c2cn(Cc3cccc(C(C)(C)O)n3)nn2)nc(N)n1` [ETRUMADENANT], the Tmax in data set [15] amounted to 90 min; in [17] it was 120 min. In addition, the highest concentration (Cmax) in data set [16] was 1170 ng/mL. Also, the half-life in data set [18] was 1200 min.

As to `COc1cccc2c(-c3cn(Cc4cccc(C(C)(C)O)n4)nn3)nc(N)nc12`, the Kb in data set [19] and in data set [20] was under 100 nM each time.

As to `COc1ncc(-c2ccccc2)c2ncc(NC(=O)N3CCC(C)(O)CC3)nc12`, the IC50 in data set [21] was under 100 nM.

Turning to `COCCn1cc(C(=O)Nc2nc3c(OC)ncc(N4CCOCC4)c3s2)cn1`, in data set [1], the half-life was 49 min. Besides, the 50% inhibitory concentration (IC50) in data set [21] is under 10 nM. Further, in [2], the maximum concentration (Cmax) came out at 1390 ng/mL.

As for `COCCn1cc(C(=O)Nc2nc3c(OC)ccc(N4CCOCC4)c3s2)cn1`, in data set [1], the half-life is 19.9 min.

Regarding `COc1ccc(-c2cnn(C)c2)c2nc(NC(=O)c3ccc(Cn4ccnc4)cc3)[nH]c12`, the concentration for half-maximal inhibition (IC50) in data set [22] and in [23] was 40 nM throughout.

As to `COc1ccc(C2CCOCC2)c2ncc(NC(=O)N3CCC(C)(O)CC3)nc12`, the half-life in [1] was 55.2 min.
